According to patent publication US10499642B2, “Isoxazoline-substituted benzamides and analogues as insecticides” (SYNGENTA PARTICIPATIONS AG, priority 2015, dated 2019):

Tests used:
Format in all cases: in vivo
Plutella xylostella = Plutella xylostella (diamond back moth) artificial diet test; details: 120 h, read-out: effect in at least one of the two categories (mortality or growth inhibition)
Method in brief: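 At a 200 ppm rate, test solutions were applied to artificial diet and allowed to dry before second-instar larvae were added. Five days later, larval mortality and growth inhibition were rated against untreated samples.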

Thrips tabaci = Thrips tabaci (onion thrips) sunflower leaf disc test; details: foliar, 144 h
Description: Thrips tabaci (Onion Thrips):
(§1) Sunflower leaf discs were placed on agar in 24-well microtiter plates and sprayed with aqueous test solutions prepared from 10′000 ppm DMSO stock solutions. After drying the leaf discs were infested with a thrips population of mixed ages. The samples were assessed for mortality 6 days after infestation.

Myzus persicae = Myzus persicae (green peach aphid) sunflower leaf disc test; details: foliar, 144 h
Description: Myzus persicae (Green Peach Aphid):
Sunflower leaf discs were placed on agar in a 24-well microtiter plate and sprayed with test solutions at an application rate of 200 ppm. After drying, the leaf discs were infested with an aphid population of mixed ages. After an incubation period of 6 days after treatment, samples were checked for mortality. The following compounds gave at least 80% mortality of Myzus persicae: […]

Tetranychus urticae = Tetranychus urticae (two-spotted spider mite) bean leaf disc test; details: foliar, 192 h
Description: Tetranychus urticae (Two-Spotted Spider Mite):
as §1, with “Bean” for “Sunflower”, “discs” for “discs were placed”, “were” for “and”, “mite” for “thrips”, “on mixed population (mobile stages) 8” for “6”

Spodoptera littoralis = Spodoptera littoralis (Egyptian cotton leaf worm) cotton leaf disc test; details: foliar, 72 h, read-out: control (at least one of mortality, anti-feedant effect, and growth inhibition)
Method in brief: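 Five first-instar larvae per disc were placed on dried, sprayed cotton leaf discs held on agar. Test solutions were aqueous, made from 10′000 ppm DMSO stocks. At day 3, control was counted when mortality, feeding deterrence or growth inhibition exceeded the untreated discs.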

Diabrotica Balteata = assay: Diabrotica balteata (corn root worm) maize sprout test; details: 96 h, read-out: effect in at least one of the two categories (mortality or growth inhibition)
Method in brief: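 Scoring covered both mortality and growth inhibition relative to untreated controls, 4 days post-infestation. Test solutions at 200 ppm, diluted in water from 10′000 ppm DMSO stocks, were sprayed onto agar-held maize sprouts, which after drying received 6 to 10 L2 larvae each well.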

CC1=NOC(N(C=O)C(=O)c2ccc(C3=NO[C@@](c4cc(Cl)cc(Cl)c4)(C(F)(F)F)C3)cc2C)C1 (stereo partly drawn) [Compound A140]
≥ 80%: percent effect (mortality or growth inhibition) at 200 ppm (Plutella xylostella) | mortality at 200 ppm (Thrips tabaci) | mortality at 200 ppm (Myzus persicae) | mortality at 200 ppm (Tetranychus urticae) | percent control (mortality, anti-feedant effect or growth inhibition) at 200 ppm (Spodoptera littoralis) | percent effect (mortality or growth inhibition) at 200 ppm (Diabrotica Balteata)

CC1=NOC(NC(=O)c2ccc(C3=NO[C@@](c4cc(Cl)cc(Cl)c4)(C(F)(F)F)C3)cc2C)C1 (stereo partly drawn) [Compound A141]
≥ 80%: percent effect (mortality or growth inhibition) at 200 ppm (Plutella xylostella) | mortality at 200 ppm (Thrips tabaci) | mortality at 200 ppm (Myzus persicae) | mortality at 200 ppm (Tetranychus urticae) | percent control (mortality, anti-feedant effect or growth inhibition) at 200 ppm (Spodoptera littoralis) | percent effect (mortality or growth inhibition) at 200 ppm (Diabrotica Balteata)

Cc1cc(C2=NO[C@@](c3cc(Cl)cc(C(F)(F)F)c3)(C(F)(F)F)C2)ccc1C(=O)N(C=O)C1CC(Br)=NO1 (stereo partly drawn) [Compound A142, N-(3-bromo-4,5-dihydroisoxazol-5-yl)-4-[(5S)-5-[3-chloro-5-(trifluoromethyl)phenyl]-5-(trifluoromethyl)-4H-isoxazol-3-yl]-N-formyl-2-methyl-benzamide]
≥ 80%: percent effect (mortality or growth inhibition) at 200 ppm (Plutella xylostella) | mortality at 200 ppm (Thrips tabaci) | mortality at 200 ppm (Myzus persicae) | mortality at 200 ppm (Tetranychus urticae) | percent control (mortality, anti-feedant effect or growth inhibition) at 200 ppm (Spodoptera littoralis) | percent effect (mortality or growth inhibition) at 200 ppm (Diabrotica Balteata)

Cc1cc(C2=NO[C@@](c3cc(Cl)c(Cl)c(Cl)c3)(C(F)(F)F)C2)ccc1C(=O)NC1CC(C#N)=NO1 (stereo partly drawn) [Compound A145, N-(3-cyano-4,5-dihydroisoxazol-5-yl)-2-methyl-4-[(5S)-5-(3,4,5-trichlorophenyl)-5-(trifluoromethyl)-4H-isoxazol-3-yl]benzamide]
≥ 80%: percent effect (mortality or growth inhibition) at 200 ppm (Plutella xylostella) | mortality at 200 ppm (Thrips tabaci) | mortality at 200 ppm (Myzus persicae) | mortality at 200 ppm (Tetranychus urticae) | percent control (mortality, anti-feedant effect or growth inhibition) at 200 ppm (Spodoptera littoralis) | percent effect (mortality or growth inhibition) at 200 ppm (Diabrotica Balteata)
